# Publication PMC3293837, “Biophysical Property and Broad Anti-HIV Activity of Albuvirtide, a 3-Maleimimidopropionic Acid-Modified Peptide Fusion Inhibitor” (PLoS ONE, 2012)
# Where two headings read alike, the source gives them in different places.
# Columns and labels:
# [1] = test system: HIV-1NL4-3 D36S/V38M pseudovirus; assay type: cell-based; conditions: HIV-1NL4-3 D36S/V38M; TZM-bl, 48 h; mean ± SD of three independent experiments
# Experimental: (§1) The mutations were created using double-stranded DNA templates and selection of mutants with DpnI. For each mutation, the two primers contained the desired mutation and occupied the same starting and ending positions on opposite strands of the plasmid DNA. DNA synthesis was carried out by PCR in a 50-µL reaction volume using 1 µL of denatured plasmid template (1 ng/µL), 50 pmol of upper and lower primers and 5 U of high-fidelity thermostable polymerase PrimeStar (Takara, Dalian, China). PCR amplification was carried out for one cycle of denaturation at 98°C for 5 min, then 18 cycles of 98°C for 15 s and 68°C for 15 min, followed a final extension at 72°C for 10 min. The amplicons were treated with the restriction enzyme DpnI for 1 h at 37°C. DpnI-resistant molecules, which were rich in the desired mutants, were recovered by transforming Escherichia coli strain-DH5α to antibiotic resistance. The successful mutations were confirmed by sequencing.
# (§2) HIV-1 pseudoviruses were generated as described previously [32], [55]–[56]. Briefly, 293T cells (5×10^6 cells in 15 ml of growth medium in a T-75 culture flask) were cotransfected with 10 µg of an Env-expressing plasmid and 20 µg of a backbone plasmid pSG3deltaEnv that encodes Env-defective, luciferase-expressing HIV-1 genome using Lipofectamine 2000 reagent (Invitrogen). Pseudovirus-containing culture supernatants were harvested 48 hours after transfection and filtered by 0.45-mm pore size, and stored at −80°C in 1-ml aliquots until use. The 50% tissue culture infectious dose (TCID50) of a single thawed aliquot of each pseudovirus batch was determined in TZM-bl cells. […] Briefly, the peptides were prepared with ten series dilutions in a 3-fold stepwise manner and mixed with 100 TCID50 viruses and incubated 1 hour at room temperature. The mixture was added to TZM-bl cells (10^4/well) and incubation at 37°C for 48 hours. Luciferase activity was measured using luciferase assay regents (Promega, Medison, WI) and a Luminescence Counter (Promega) according to the manufacture's instructions.
# [2] = test system: HIV-1NL4-3 V38A pseudovirus; assay type: cell-based
# Experimental: as §2
# [3] = test system: N36 (NHR target sequence); conditions: complex with N36; CD at 222 nm, 20–90°C, 1°C per min, 1 µM in PBS buffer
# Experimental: CD spectroscopy was performed as previously described, [26]. […] The final peptide concentration was 10 µM in PBS buffer (pH 7.2). The isolated N- and C-peptides were also tested. The CD spectra of these individual peptides and peptide mixtures were acquired on MOS-450 spectropolarimeter (Bio-Logic, France) using a 1 nm bandwidth with a 1 nm step resolution from 190 to 260 nm at room temperature. The spectra were corrected by subtraction of a blank corresponding to the solvent. Data were averaged over three accumulations. […] Tm value was detected at protein concentration of 1 µM in PBS buffer.
# [4] = test system: HIV-1NL4-3 I37V/V38T infectious molecular clone; assay type: cell-based
# Experimental: (§3) The mutant viruses were generated by transient transfection of NL4-3 plasmids into 293T cells. The virus stocks were harvested 48 hours post-transfection and quantified for TCID50. […] In brief, 100 TCID50 viruses were used to infect TZM-bl cells in the presence or absence of serially diluted peptides. Two days post-infection, the cells were harvested and lysed in reporter lysis buffer, and the luciferase activity was measured. The IC50 was calculated as described above using GraphPad Prism software (GraphPad Prism software Inc., San Diego, CA).
# HIV-1 = conditions: cited from earlier work
# [5] = test system: HIV-1NL4-3 I37T pseudovirus; assay type: cell-based; conditions: HIV-1NL4-3 I37T; TZM-bl, 48 h; mean ± SD of three independent experiments
# Experimental: as §2
# [6] = test system: HIV-1NL4-3 V38A/N42T pseudovirus; assay type: cell-based
# Experimental: as §2
# [7] = test system: HIV-1NL4-3 N43K pseudovirus; assay type: cell-based; conditions: HIV-1NL4-3 N43K; TZM-bl, 48 h; mean ± SD of three independent experiments
# Experimental: as §1, §2
# [8] = test system: HIV-1NL4-3 Q40H pseudovirus; assay type: cell-based; conditions: HIV-1NL4-3 Q40H; TZM-bl, 48 h; mean ± SD of three independent experiments
# Experimental: as §1, §2
# [9] = test system: N36 (NHR target sequence); experiment: CD spectroscopy (C-peptide alone or with N36); assay type: physicochemical, HIV-1; conditions: PBS pH 7.2, 10 µM (methods), room temperature
# Experimental: CD spectroscopy was performed as previously described, [26]. […] The isolated N- and C-peptides were also tested. […] Data were averaged over three accumulations.
# [10] = test system: HIV-1NL4-3 D36G pseudovirus; assay type: cell-based
# Experimental: as §2
# [11] = test system: HIV-1HXB2 Env-mediated cell-cell membrane fusion (TZM-bl / HL2/3 cells); conditions: read-out: IC50, Env-mediated cell-cell fusion; TZM-bl with HL2/3 cells, 6 h, 37°C, luciferase; three independent experiments
# Experimental: Cell fusion was monitored using a reporter gene assay based on activation of HIV LTR-driven luciferase cassette in TZM-bl (Target) cells by HIV-1 tat from the HL2/3 (Effector) cells. Briefly, the TZM-bl cells were plated in 96-well clusters (2×10^4 per well) and incubated at 37°C overnight. […] Luciferase activity was measured using luciferase assay regents (Promega, Medison, WI) and a Luminescence Counter (Promega) according to the manufacture's instructions. Background luminescence in TZM-bl cells was determined without addition of HL2/3 cells.
# [12] = test system: HIV-1NL4-3 I37T/N43K pseudovirus; assay type: cell-based; conditions: HIV-1NL4-3 I37T/N43K; TZM-bl, 48 h; mean ± SD of three independent experiments
# Experimental: as §1, §2
# [13] = test system: T20-resistant HIV-1NL4-3 variants; conditions: HIV-1NL4-3 with single or double gp41 mutations
# Experimental: Luciferase activity was measured using luciferase assay regents (Promega, Medison, WI) and a Luminescence Counter (Promega) according to the manufacture's instructions.
# [14] = test system: HIV-1NL4-3 L33S infectious molecular clone; assay type: cell-based
# Experimental: as §3
# [15] = test system: HIV-1NL4-3 Env-pseudotyped virus; assay type: cell-based; conditions: TZM-bl
# Experimental: as §2
# [16] = test system: HIV-1NL4-3 V38M pseudovirus; assay type: cell-based
# Experimental: as §2
# [17] = infectious molecular clone, T20 up to 750 nM
substance,measurement,setting,value
enfuvirtide,IC50,[1],322 ± 60.3 nM
same,IC50,"[2]; HIV-1NL4-3 V38A, TZM-bl, 48 h, mean ± SD of three independent experiments",1260 ± 182 nM
same,resistance change with V38A (in words),[2]; V38A single mutation,high-fold resistance changes
same,Tm of C-peptide/N36 complex,[3],undetectable
same,IC50,"[4]; I37V/V38T infectious molecular clone of HIV-1NL4-3, TZM-bl, 100 TCID50, two days, mean ± SD of three independent experiments",> 750 nM
same,inhibitory activity on I37V/V38T virus (in words),[4]; [17],no any inhibitory activity at a concentration up to 750 nM
same,inhibition of viral entry (in words),HIV-1,low nanomolar concentration
same,IC50,[5],300 ± 55.1 nM
same,IC50,"[6]; HIV-1NL4-3 V38A/N42T, TZM-bl, 48 h, mean ± SD of three independent experiments",> 3000 nM
same,resistance change with V38A/N42T (in words),[6]; V38A/N42T double mutations,high-fold resistance changes
same,IC50,[7],262 ± 44.4 nM
same,IC50,[8],731 ± 35.2 nM
same,CD spectrum / α-helicity with N36,"[9]; equimolar N36, 37°C 30 min, 222 nm",could not form a typical α-helical complex with N36
same,CD spectrum / α-helical conformation of C-peptide alone,"[9]; peptide alone, 190-260 nm",minimum α-helical conformation
same,increase in sensitivity of D36G mutant,[10]; D36G relative to WT HIV-1NL4-3,8.3 fold
same,IC50,"[10]; HIV-1NL4-3 D36G, TZM-bl, 48 h, mean ± SD of three independent experiments",7.5 ± 1.3 nM
same,IC50,[11],56.2 nM
same,IC50,[12],> 3000 nM
same,activity on T20-resistant variants (in words),[13],high level resistance
same,IC50,"[14]; L33S infectious molecular clone of HIV-1NL4-3, TZM-bl, 100 TCID50, two days, mean ± SD of three independent experiments",> 750 nM
same,inhibitory activity on L33S virus (in words),[14]; [17],no any inhibitory activity at a concentration up to 750 nM
same,IC50,"[15]; Fig. 5A, 100 TCID50, 48 h 37°C, luciferase, mean, three independent experiments, read-out: mean IC50, virus entry",70.7 nM
same,IC50,"[15]; HIV-1NL4-3 WT pseudovirus, Table 3, 48 h, mean ± SD of three independent experiments, read-out: IC50",62.5 ± 11.9 nM
same,IC50,"[16]; HIV-1NL4-3 V38M, TZM-bl, 48 h, mean ± SD of three independent experiments",646 ± 57.7 nM
same,resistance change with V38M (in words),[16]; V38M single mutation,high-fold resistance changes
